Where “and” joins values, the source holds several entries; their conditions need not be identical. Equal entries are not always repeated. Where two headings read alike, the source gives them in different places.
Assays:
[1] = cited from earlier work
[2] = 20° C.; cited from earlier work
[3] = cited from earlier work; remark: listed apart in the source
[4] = tested on: human and yeast CYP51 (lanosterol-14α-demethylase); conditions: cited from earlier work
[5] = tested on: Poria placenta (Brown rot); assay: Malt extract agar plate growth inhibition; format: cell-based
Method: (§1) The end points used were EC90 or EC50, the concentration producing 90% or 50% inhibition of growth or weight loss resulting from fungal growth. EC values were calculated by regression analysis of dose response data using the GraphPad Prism software package (GraphPad Software, Inc., 5755 Oberlin Drive #110, San Diego, Calif. 92121, USA). EC90 values are expressed in ppm and EC50 values are expressed in gai/m^3. […]
(§2) Further EC90 values were determined for this example in a standard manner.

[6] = tested on: Pycnoporus coccineus (White rot); assay: Malt extract agar plate growth inhibition; format: cell-based
Method: as §1, §2

[7] = tested on: Gloeophyllum abietinum (Brown rot); assay: Malt extract agar plate growth inhibition; format: cell-based; conditions: Example 5, 7 days growth
Method: as §1, §2

[8] = tested on: Serpula lacrymans (Dry rot); assay: Malt extract agar plate growth inhibition; format: cell-based
Method: as §1, §2

[9] = tested on: Tyromyces palustris (Brown rot); assay: Malt extract agar plate growth inhibition; format: cell-based; conditions: Example 5, 4 days growth
Method: as §1, §2

[10] = cited from earlier work; remark: listed apart in the source
Tyromyces palustris = assay: Rot jar test of glueline treated Pinus radiata plywood (AWPC 2007); conditions: leached, three month rot jar
Method: (§3) Efficacy as a glueline fungicide was tested in plywood manufactured with phenol formaldehyde (PF), a typical resin used in engineered wood products. The wood type was Pinus radiata sapwood, which, like many softwoods, is rapidly degraded by decay organisms, if not protected. Five 3.2 mm rotary-peeled veneers were laid up with fungicide-containing PF resin at a typical commercial glue spread rate (250 g/m^2), cold pressed for 10 minutes then hot pressed for 12 minutes at 135° C. and […]. Test specimens (25 mm×25 mm×16 mm) were cut, then leached for 14 days according to EN 84 before conducting a three month “rot jar test” as specified by the Australasian Wood Preservation Committee (Laboratory Decay Test for Hazard Classes H3, H4 and H5, AWPC, 2007). Untreated controls contained no fungicide.
Plywood was manufactured following the procedure in Example 7 using triadimefon and triadimenol as the glueline fungicides and tested by the rot jar method after leaching. […]

[11] = tested on: Coniophora puteana (Brown rot); assay: Malt extract agar plate growth inhibition; format: cell-based; conditions: Example 6, 8 days growth
Method: as §1

[12] = tested on: Antrodia xantha (Brown rot); assay: Malt extract agar plate growth inhibition; format: cell-based
Method: as §1

Antrodia xantha = assay: Rot jar test of glueline treated Pinus radiata plywood (AWPC 2007); conditions: Example 9, glueline rate giving 50% inhibition of weight loss, six rates, regression
Method: (§4) The end points used were EC90 or EC50, the concentration producing 90% or 50% inhibition of growth or weight loss resulting from fungal growth. EC values were calculated by regression analysis of dose response data using the GraphPad Prism software package (GraphPad Software, Inc., 5755 Oberlin Drive #110, San Diego, Calif. 92121, USA). EC90 values are expressed in ppm and EC50 values are expressed in gai/m^3.
as §3
(§5) Plywood was manufactured following the procedure in Example 7 using triadimefon and triadimenol as the glueline fungicides and tested by the rot jar method after leaching.
(§6) In order to examine the interaction between triadimefon and cyproconazole in the glueline a synergy trial was performed using plywood manufactured with fungicide-supplemented PF resin and the rot jar method described above. Six glueline rates (expressed as gai/m^3) of triadimefon alone, cyproconazole alone, triadimefon+cyproconazole (10:1) and triadimefon+cyproconazole (6:1) were used to establish EC50 values by regression analysis. Synergy was determined by the Wadley method as described above using the EC50 values.
(§7) Plywood 29 mm thick was manufactured from seven 4.3 mm rotary peeled Pinus radiata sapwood veneers using PF resin supplemented with various rates of triadimefon plus cyproconazole at a 10:1 ratio. […] The finished plywood was then sprayed with the same mixtures to cover the top and bottom faces of the plywood. Test specimens (25 mm×25 mm×29 mm) were cut, leached and tested by the rot jar method as described in Example 7.

[13] = tested on: Fomitopsis lilacino-gilva; assay: as above; conditions: for Percentage weight loss: leached, three month rot jar
Method: as §4, §3, §5, §6, §7

Serpula lacrymans = assay: as above; conditions: for Percentage weight loss: leached, three month rot jar
Method: as §4, §3
as §6, with “values. […]” for “values.”

Coniophora puteana = assay: as above; conditions: Example 10, glueline rate giving 50% inhibition of weight loss, regression
Method: as §4
Efficacy as a glueline fungicide was tested in plywood manufactured with phenol formaldehyde (PF), a typical resin used in engineered wood products. The wood type was Pinus radiata sapwood, which, like many softwoods, is rapidly degraded by decay organisms, if not protected. […]
as §6, with “values. […]” for “values.”

[14] = tested on: Trametes versicolor (White rot); assay: Malt extract agar plate growth inhibition; format: cell-based; conditions: Example 4, 5 days at 25° C.
Method: as §4
(§8) Decay fungi were grown on malt extract agar plates for 5 days at 25° C. in the presence of triadimefon alone or triadimenol alone (A), cyproconazole alone (B), and the pairs of mixtures shown in Table 2.

[15] = tested on: Fomitopsis lilacino-gilva (Brown rot); assay: Malt extract agar plate growth inhibition; format: cell-based; conditions: Example 4, 5 days at 25° C.
Method: as §4, §8

[16] = in words, temperature not given
[17] = Example 7, glueline 62.5 gai/m3, PF plywood
[18] = Example 7, glueline 125 gai/m3, PF plywood
[19] = Example 7, glueline 250 gai/m3, PF plywood
[20] = Example 7, glueline 500 gai/m3, PF plywood
[21] = Example 9, glueline rate giving 50% inhibition of weight loss, six rates, regression

Propiconazole
Kow (log P) [1]: 3.72
Sol. Water [2]: 100 mg/L (20°)
Sol. hexane ([3]; 25° C.): 47 g/L (25° C.)
Sol. DCM [3, 16]: Completely misc
Sol. toluene [3, 16]: Completely misc
relative selectivity for the fungal enzyme (in words) ([4]; based on the IC50 ratio human/yeast): moderately selective
ratio of IC50 values (human/yeast) against CYP51 ([4]; human CYP51 IC50 / yeast (Candida albicans) CYP51 IC50): 55

CC(C1CC1)C(O)(Cn1cncn1)c1ccc(Cl)cc1 (racemic) [Cyproconazole]
EC90(obs) ([5]; Example 5, 5 days growth): 0.92 ppm
EC90(obs) ([5]; Example 6, 6 days growth): 0.36 ppm
EC90(obs) ([6]; Example 5, 4 days growth): 0.17 ppm
EC90(obs) ([6]; Example 6, 6 days growth): 0.14 ppm
EC90(obs) [7]: 0.25 ppm
EC90(obs) ([8]; Example 5, 5 days growth): 1.60 ppm
EC90(obs) ([8]; Example 6, 8 days growth): 1.32 ppm
EC90(obs) [9]: 0.68 ppm
Stability in water ([10]; pH 1): Stable in water 35 d
Percentage weight loss (Tyromyces palustris; [17]): 25.0%
Percentage weight loss (Tyromyces palustris; [18]): 16.0%
Percentage weight loss (Tyromyces palustris; [19]): 17.1%
Percentage weight loss (Tyromyces palustris; [20]): 4.3%
EC90(obs) [11]: 1.93 ppm
EC90(obs) ([12]; Example 4, 5 days at 25° C.): 0.19 ppm
EC90(obs) ([12]; Example 6, 8 days growth): 0.46 ppm
EC50(obs) (Antrodia xantha): 84 gai/m^3
Percentage weight loss [13, 17]: 7.6%
Percentage weight loss [13, 18]: 4.1%
Percentage weight loss [13, 19]: 2.7%
Percentage weight loss [13, 20]: 0.8%
EC50(obs) [13, 21]: 10 gai/m^3
Percentage weight loss (Serpula lacrymans; [17]): 38.0%
Percentage weight loss (Serpula lacrymans; [18]): 38.0%
Percentage weight loss (Serpula lacrymans; [19]): 37.9%
Percentage weight loss (Serpula lacrymans; [20]): 29.6%
EC50(obs) (Serpula lacrymans; [21]): 465 gai/m^3
EC50(obs) (Coniophora puteana): 345 gai/m^3
EC90(obs) [14]: 0.30 ppm and 0.19 ppm
EC90(obs) [15]: 0.12 ppm

CC(C)(C)C(O)(CCc1ccc(Cl)cc1)Cn1cncn1 (racemic) [Tebuconazole]
Stability, hydrolysis DT50 ([10]; pH 4-9): DT50 >1 y pH 4-9
Sol. Water [2]: 36 mg/L (20° C.)
Sol. DCM ([3]; 20° C.): >200 g/L (20° C.)
Sol. hexane ([3]; 20° C.): <0.1 g/L (20° C.)
Sol. toluene ([3]; 20° C.): 50-100 g/L (20° C.)

Source: patent publication US9826740B2, “Synergistic fungicidal compositions and methods of use” (ZELAM LIMITED, priority 2010, dated 2017)
